What all share (format): cell-based
One experiment concerns the target T1, mouse SMO^D473H (Mus musculus, UniProt P56726, D477H).
T1 construct: expressed in transfected cells
Put plainly: Mouse assay: Gli1 qPCR in MEF cells stably expressing mouse SMO D473H. As to conditions: mSHh-treated, 24 hours; for IC50: Gli1 inhibition by qPCR, read-out: Mouse D473H pIC50 (converted); for Mouse D473H % Inh: percentage Gli1 inhibition. The method, then:
(§1) Cell culture. All materials were purchased from Sigma-Aldrich, unless otherwise stated.
(§2) Compound treatment. […] After 1 hour incubation, cells were treated with assay medium containing mSHh prepared at 2.5× of final assay concentrations specified in the text and incubated for a further 24 hours at 37′C in a humidified 95% air/5% CO2 atmosphere prior to qPCR analysis.
(§3) Cell lysis and one-step qPCR. The Cells-to-CT™ 1-Step TaqMan® Kit was used in conjunction with TaqMan primer-probe assays for the detection of Gli1 (FAM, Mm00494654_m1) and Gusb (VIC, Mm01197698_m1) genes (all purchased from Life Technologies). Following 24 hours cell treatment, spent medium was removed and cells were washed with PBS before the application of lysis and stop solution as per manufacturer's instructions. The qPCR reactions were run in a 384-well PCR plate using master mix prepared according to manufacturer's instructions and cell lysate samples from treatment wells. Real-time PCR amplification was detected using the Bio-Rad CFX384 Touch PCR system. Four experimental replicates (two cell replicates and two qPCR replicates) were performed for each compound concentration tested. Real-time data were analysed using the CFX Maestro software (Bio-Rad) and obtained expression values were converted to percentage Gli1 inhibition by normalising to the average Gli1 expression of mSHh-treated control samples.
On the technique in general: Quantitative PCR measures a nucleic acid by following its amplification.

A further experiment has as its target T2, mouse SMO^WT (Mus musculus, UniProt P56726).
T2 construct: expressed in transfected cells
Put plainly: Mouse assay: Gli1 qPCR in MEF cells stably expressing mouse SMO WT. As to conditions: mSHh-treated, 24 hours; for IC50: Gli1 inhibition by qPCR, read-out: Mouse WT pIC50 (converted); for Mouse WT % Inh: percentage Gli1 inhibition. The method, then: as §1, §2, §3

Another experiment concerns the target T3, mouse SMO^W535L (Mus musculus, UniProt P56726, W539L).
T3 construct: expressed in transfected cells
Put plainly: Mouse assay: Gli1 qPCR in MEF cells stably expressing mouse SMO W535L. As to conditions: mSHh-treated, 24 hours; for IC50: Gli1 inhibition by qPCR, read-out: Mouse W535L pIC50 (converted); for Mouse W535L % Inh: percentage Gli1 inhibition. The method, then: as §1, §2, §3

Each structure is given as a SMILES string.

Results on 17 compounds are retold here after patent US20250136559A1, “SMO MODULATOR COMPOUNDS” (OMASS THERAPEUTICS LIMITED, priority 2022, published 2025).

T3 sequence (P56726 33-793 W539L): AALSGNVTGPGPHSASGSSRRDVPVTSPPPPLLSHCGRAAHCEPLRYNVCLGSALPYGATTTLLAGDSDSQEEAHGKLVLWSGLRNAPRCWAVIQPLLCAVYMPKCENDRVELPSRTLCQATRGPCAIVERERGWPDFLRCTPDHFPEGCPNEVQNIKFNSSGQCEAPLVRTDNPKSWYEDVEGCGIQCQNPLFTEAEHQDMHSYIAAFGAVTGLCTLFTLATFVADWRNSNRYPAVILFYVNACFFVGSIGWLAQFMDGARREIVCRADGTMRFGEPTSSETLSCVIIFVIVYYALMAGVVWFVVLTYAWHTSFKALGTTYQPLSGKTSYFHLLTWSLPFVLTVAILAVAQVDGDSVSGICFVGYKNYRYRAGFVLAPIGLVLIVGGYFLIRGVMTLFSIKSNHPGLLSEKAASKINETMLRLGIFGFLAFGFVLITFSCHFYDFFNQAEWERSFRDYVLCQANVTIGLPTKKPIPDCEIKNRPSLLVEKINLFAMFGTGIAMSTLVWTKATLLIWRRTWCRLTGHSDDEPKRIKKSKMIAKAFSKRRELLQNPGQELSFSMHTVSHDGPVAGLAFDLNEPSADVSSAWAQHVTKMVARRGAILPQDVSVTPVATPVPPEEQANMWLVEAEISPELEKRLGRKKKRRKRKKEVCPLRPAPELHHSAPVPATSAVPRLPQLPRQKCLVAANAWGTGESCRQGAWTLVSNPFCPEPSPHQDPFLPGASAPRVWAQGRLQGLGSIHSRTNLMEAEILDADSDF
T2 sequence (P56726 33-793): as the sequence (P56726 33-793 W539L) above, with L507W counted along it
T1 sequence (P56726 33-793 D477H): as the sequence (P56726 33-793 W539L) above, with D445H, L507W counted along it

For the compound `O=C(Nc1ccc(-c2nc(C3CC3)n[nH]2)cc1)c1cccc(CN2CCSCC2)c1` [Example 1-1, N-[4-(3-cyclopropyl-1H-1,2,4-triazol-5-yl)phenyl]-3-(thiomorpholin-4-ylmethyl)benzamide], on mouse SMO^D473H, the IC50 was 200 nM and the “Mouse D473H % Inh” value is on record as 99.3%. On mouse SMO^WT, the IC50 was 20 nM and the “Mouse WT % Inh” value is 99.4%. On mouse SMO^W535L, the IC50 was 251 nM and the “Mouse W535L % Inh” value is 66.8%.
`CC1(C)CN(Cc2cccc(C(=O)Nc3ccc(-c4nc(C5CC5)n[nH]4)cc3)c2)CCS1(=O)=O` [Example 1-3, N-[4-(3-cyclopropyl-1H-1,2,4-triazol-5-yl)phenyl]-3-[(2,2-dimethyl-1,1-dioxo-1,4-thiazinan-4-yl)methyl]benzamide]: at mouse SMO^D473H, the IC50 was 63.1 nM and the “Mouse D473H % Inh” value worked out at 99.7%. On mouse SMO^WT, the IC50 is 20 nM and the “Mouse WT % Inh” value is 99.4%. Also, at mouse SMO^W535L, the IC50 was 158 nM and the “Mouse W535L % Inh” value is on record as 62.6%.
Consider `O=C(Nc1ccc(-c2nc(C3CC3)n[nH]2)cc1)c1cc(CN2CCS(=O)(=O)CC2)ccc1F` [Example 2-1, N-[4-(5-Cyclopropyl-1H-1,2,4-triazol-3-yl)phenyl]-5-[(1,1-dioxo-1,4-thiazinan-4-yl)methyl]-2-fluorobenzamide], for which, on mouse SMO^D473H, the IC50 was 200 nM and the “Mouse D473H % Inh” value is given as 95.3%. Moreover, on mouse SMO^WT, the IC50 is 15.8 nM and the “Mouse WT % Inh” value is on record as 96.5%. At mouse SMO^W535L, the IC50 is 79.4 nM and the “Mouse W535L % Inh” value is listed as 68.2%.
For the compound `O=C(Nc1ccc(-c2nc(C3CC3)n[nH]2)cc1)c1ccc(F)c(CN2CCS(=O)(=O)CC2)c1` [Example 2-3, N-[4-(5-Cyclopropyl-1H-1,2,4-triazol-3-yl)phenyl]-3-[(1,1-dioxo-1,4-thiazinan-4-yl)methyl]-4-fluorobenzamide], at mouse SMO^D473H, the IC50 is 158 nM and the “Mouse D473H % Inh” value was determined as 93.9%. For the same compound, on mouse SMO^WT, the IC50 was 20 nM and the “Mouse WT % Inh” value stood at 94.4%. On mouse SMO^W535L, the IC50 is 79.4 nM and the “Mouse W535L % Inh” value was 76.5%.
For `O=C(Nc1ccc(-c2nc(C3CC3)n[nH]2)cc1)c1ccc(Cl)c(CN2CCS(=O)(=O)CC2)c1` [Example 2-5, 4-Chloro-N-[4-(5-cyclopropyl-1H-1,2,4-triazol-3-yl)phenyl]-3-[(1,1-dioxo-1,4-thiazinan-4-yl)methyl]benzamide], on mouse SMO^D473H, the IC50 was 158 nM and the “Mouse D473H % Inh” value turned out to be 94.4%. For the same compound, at mouse SMO^WT, the IC50 was 15.8 nM and the “Mouse WT % Inh” value was 95.5%. At mouse SMO^W535L, the IC50 is 100 nM and the “Mouse W535L % Inh” value turned out to be 72.2%.
For `CC(C)c1n[nH]c(-c2ccc(NC(=O)c3cccc(CN4CCS(=O)(=O)CC4)c3)cc2)n1.Cl` [Example 3-1, 3-[(1,1-dioxo-1,4-thiazinan-4-yl)methyl]-N-[4-(3-propan-2-yl-1H-1,2,4-triazol-5-yl)phenyl]benzamide], at mouse SMO^D473H, the IC50 is 158 nM and the “Mouse D473H % Inh” value is listed as 96.6%. On mouse SMO^WT, the IC50 was 20 nM and the “Mouse WT % Inh” value amounted to 99.1%. Moreover, at mouse SMO^W535L, the IC50 is 200 nM and the “Mouse W535L % Inh” value turned out to be 77.1%.
Regarding `CC(C)(C)c1n[nH]c(-c2ccc(NC(=O)c3cccc(CN4CCS(=O)(=O)CC4)c3)cc2)n1` [Example 3-2, N-[4-(5-tert-Butyl-1H-1,2,4-triazol-3-yl)phenyl]-3-[(1,1-dioxo-1,4-thiazinan-4-yl)methyl]benzamide], on mouse SMO^D473H, the IC50 is 501 nM and the “Mouse D473H % Inh” value is reported as 91.0%. On mouse SMO^WT, the IC50 is 25.1 nM and the “Mouse WT % Inh” value came out at 97.3%. Besides, at mouse SMO^W535L, the IC50 was 100 nM and the “Mouse W535L % Inh” value is recorded as 41.6%.
Regarding `Cl.O=C(Nc1ccc(-c2nc(C3CCC3)n[nH]2)cc1)c1cccc(CN2CCS(=O)(=O)CC2)c1` [Example 3-4, N-[4-(3-Cyclobutyl-1H-1,2,4-triazol-5-yl)phenyl]-3-[(1,1-dioxo-1,4-thiazinan-4-yl)methyl]benzamide], on mouse SMO^D473H, the IC50 was 200 nM and the “Mouse D473H % Inh” value was determined as 97.7%. In addition, on mouse SMO^WT, the IC50 was 25.1 nM and the “Mouse WT % Inh” value worked out at 98.0%. Besides, on mouse SMO^W535L, the IC50 was 200 nM and the “Mouse W535L % Inh” value came out at 63.0%.
Consider `O=C(Nc1ccc(-c2nc(C3CCCCC3)n[nH]2)cc1)c1cccc(CN2CCS(=O)(=O)CC2)c1` [Example 3-6, N-[4-(3-Cyclohexyl-1H-1,2,4-triazol-5-yl)phenyl]-3-[(1,1-dioxo-1,4-thiazinan-4-yl)methyl]benzamide], for which, on mouse SMO^D473H, the IC50 is 200 nM and the “Mouse D473H % Inh” value was 98.4%. Besides, at mouse SMO^WT, the IC50 was 31.6 nM and the “Mouse WT % Inh” value came to 98.4%. On mouse SMO^W535L, the IC50 was 79.4 nM and the “Mouse W535L % Inh” value was 51.7%.
As for `O=C(Nc1ccc(-c2nc(CC3CC3)n[nH]2)cc1)c1cccc(CN2CCS(=O)(=O)CC2)c1` [Example 3-7, N-[4-[3-(Cyclopropylmethyl)-1H-1,2,4-triazol-5-yl]phenyl]-3-[(1,1-dioxo-1,4-thiazinan-4-yl)methyl]benzamide], at mouse SMO^D473H, the IC50 is 200 nM and the “Mouse D473H % Inh” value worked out at 97.3%. For the same compound, on mouse SMO^WT, the IC50 is 25.1 nM and the “Mouse WT % Inh” value is listed as 98.5%. Moreover, on mouse SMO^W535L, the IC50 is 200 nM and the “Mouse W535L % Inh” value came out at 70.7%.
Regarding `O=C(Nc1ccc(-c2nc(C3CCN(c4ccccc4)C3)n[nH]2)cc1)c1cccc(CN2CCS(=O)(=O)CC2)c1` (stereo not shown) [Example 3-8, 3-[(1,1-Dioxo-1,4-thiazinan-4-yl)methyl]-N-[4-[3-(1-phenylpyrrolidin-3-yl)-1H-1,2,4-triazol-5-yl]phenyl]benzamide], on mouse SMO^D473H, the IC50 is 158 nM and the “Mouse D473H % Inh” value stood at 98.0%. Besides, on mouse SMO^WT, the IC50 is 20 nM and the “Mouse WT % Inh” value is 98.6%. At mouse SMO^W535L, the IC50 was 100 nM and the “Mouse W535L % Inh” value was determined as 57.9%.
Turning to `O=C(Nc1ccc(-c2nc(C3CCCN(Cc4ccccc4)C3)n[nH]2)cc1)c1cccc(CN2CCS(=O)(=O)CC2)c1` (stereo not shown) [Example 3-9, N-[4-[3-(1-Benzylpiperidin-3-yl)-1H-1,2,4-triazol-5-yl]phenyl]-3-[(1,1-dioxo-1,4-thiazinan-4-yl)methyl]benzamide], on mouse SMO^D473H, the IC50 is 316 nM and the “Mouse D473H % Inh” value worked out at 93.8%. For the same compound, on mouse SMO^WT, the IC50 is 31.6 nM and the “Mouse WT % Inh” value is listed as 95.1%. Further, at mouse SMO^W535L, the IC50 is 63.1 nM and the “Mouse W535L % Inh” value is reported as 63.2%.
Turning to `O=C(Nc1ccc(-c2nc(-c3cccc(F)c3)n[nH]2)cc1)c1cccc(CN2CCS(=O)(=O)CC2)c1` [Example 3-10, 3-[(1,1-Dioxo-1,4-thiazinan-4-yl)methyl]-N-[4-[3-(3-fluorophenyl)-1H-1,2,4-triazol-5-yl]phenyl]benzamide], on mouse SMO^D473H, the IC50 is 251 nM and the “Mouse D473H % Inh” value is recorded as 97.9%. Moreover, on mouse SMO^WT, the IC50 was 12.6 nM and the “Mouse WT % Inh” value was 99.1%. Besides, at mouse SMO^W535L, the IC50 is 100 nM and the “Mouse W535L % Inh” value is 63.9%.
`O=C(Nc1ccc(-c2nc(-c3cccc(Cl)c3)n[nH]2)cc1)c1cccc(CN2CCS(=O)(=O)CC2)c1` [Example 3-11, N-[4-[3-(3-Chlorophenyl)-1H-1,2,4-triazol-5-yl]phenyl]-3-[(1,1-dioxo-1,4-thiazinan-4-yl)methyl]benzamide]: at mouse SMO^D473H, the IC50 is 100 nM and the “Mouse D473H % Inh” value was 98.5%. Further, at mouse SMO^WT, the IC50 was 10 nM and the “Mouse WT % Inh” value was found to be 98.4%. Besides, on mouse SMO^W535L, the IC50 was 501 nM and the “Mouse W535L % Inh” value was determined as 62.5%.
Turning to `COc1ccc(-c2n[nH]c(-c3ccc(NC(=O)c4cccc(CN5CCS(=O)(=O)CC5)c4)cc3)n2)cc1` [Example 3-12, 3-[(1,1-Dioxo-1,4-thiazinan-4-yl)methyl]-N-[4-[5-(4-methoxyphenyl)-1H-1,2,4-triazol-3-yl]phenyl]benzamide], on mouse SMO^D473H, the IC50 was 200 nM and the “Mouse D473H % Inh” value amounted to 97.5%. Moreover, at mouse SMO^WT, the IC50 is 12.6 nM and the “Mouse WT % Inh” value is recorded as 99.0%. For the same compound, at mouse SMO^W535L, the IC50 was 316 nM and the “Mouse W535L % Inh” value stood at 53.3%.
As for `Cc1oc(-c2ccc(NC(=O)c3ccc(Cl)c(CN4CCS(=O)(=O)CC4)c3)cn2)nc1Br` [Example 5-1, N-[6-(4-bromo-5-methyl-1,3-oxazol-2-yl)pyridin-3-yl]-4-chloro-3-[(1,1-dioxo-1,4-thiazinan-4-yl)methyl]benzamide], on mouse SMO^WT, the IC50 was 20 nM and the “Mouse WT % Inh” value is 99.3%.
`O=C(Nc1ccc(-c2cc(C3CC3)[nH]n2)nc1)c1ccc(Cl)c(CN2CCS(=O)(=O)CC2)c1` [Example 5-3, 4-Chloro-N-[6-(5-cyclopropyl-1H-pyrazol-3-yl)pyridin-3-yl]-3-[(1,1-dioxo-1,4-thiazinan-4-yl)methyl]benzamide]: at mouse SMO^WT, the IC50 is 63.1 nM and the “Mouse WT % Inh” value came out at 98.6%.
